Reference: patent US20250325581A1, “USE OF SODIUM PENTABORATE PENTAHYDRATE AS A CHEMOTHERAPEUTIC AGENT” (YEDITEPE UNIVERSITESI, priority 2022, published 2025)
Like-named read-outs stand apart in the source and are kept apart here.

Tests used:
[1] = tested on: A498 renal cancer cells
Description: (§1) The effective dose of NaB on renal cancer was determined by colorimetric tetrazolium (MTS) viability assay on renal cancer cells (ACHN and A498) and healthy renal cells (RPTEC). MTS (3-(4,5-dimethyl-thiazol-2-yl)-5-(3-carboxy-methoxy-phenyl)-2-(4-sulfo-phenyl)-2H-tetrazolium) is a colorimetric assay based on the tetrazolium salt. The assay measures the enzyme activity which reduces MTS to the purple formazan. Cell cultures incubated for two hours are read by measuring the absorbance at 490 nm wavelength by means of ELISA. The NaB compound is dissolved at different concentrations (at ratios of 500 μg/ml, 1000 μg/ml, 1500 μg/ml, 2000 μg/ml, 2500 μg/ml, 3000 μg/ml, 3500 μg/ml for renal cancer cells, and 500 μg/ml, 1000 μg/ml, 2500 μg/ml, 5000 μg/ml, 7000 μg/ml for healthy renal cells) in the medium suitable for the cell used (30 seconds of vortexing is applied after the addition of the agent), filtered through 0.22 micron filters, and sterilized. MTS assays are performed at hours 24, 48, and 72, and as a result, the concentrations of dead cells at the IC50 dose are determined and the next steps are continued with these dosages.

[2] = tested on: ACHN renal cancer cells
Description: as §1

[3] = tested on: renal cancer cells (ACHN and A498) and healthy renal cells (RPTEC); conditions: IC50 dose for cancer cells applied 72 hours; cancer vs healthy cells
Description: Whether the death rates of renal cancer cells treated with the agent at the dosage determined by the MTS assay are dependent on apoptosis or not is determined by Annexin V assay. […] Annexin V binds to PSs, which were translocated to the outer surface of the cell, thereby making the apoptotic cell visible and it is measured by flow cytometry. Since Annexin V binding can also be observed on the surface of necrotic cells, Propidium Iodide (Red Fluorescence), which stains only dead cells, was added as a second stain. Cells, which are simultaneously stained with Annexin V-FITC (Green Fluorescence) and Propidium Iodide (Red Fluorescence), allow viable cells (FITC−PI−), early apoptotic cells (FITC+PI−), and late apoptotic or necrotic cells (FITC+PI+) to be distinguished from each other. Cells marked with Annexin V-FITCH-conjugated markers are analyzed by flow cytometry.

[4] = tested on: ACHN and A498 renal cancer cells; conditions: dosage determined by the MTS assay
Description: Cell proliferation analyses of renal cancer cells treated with the agent at the dosage determined by the MTS assay are performed by EdU (Ethinyl-2′-deoxyuridine) assay. […] For this assay, 10 uM EdU is applied to the cells cultured on slides placed in 6-well plates. Following the incubation, cells are fixed for 15 minutes with 3.7% formaldehyde diluted in PBS, and then washed with 3% BSA also diluted in PBS. Cell membrane permeability is increased by treatment with 0.5% nonionic surfactant diluted in PBS at room temperature for 20 minutes. After a final washing with 3% BSA solution, the reaction cocktail is added to the cells. Cells are incubated at room temperature for 30 minutes, and then the EdU-stained cells, which are actively synthesizing DNA, are observed under a confocal microscope.

IC50 determined by MTS ([1]; A498, Hour 24): >7000 µg/mL
IC50 determined by MTS ([1]; A498, Hour 48): 1900 µg/mL
IC50 determined by MTS ([2]; Hour 24): >7000 µg/mL
IC50 determined by MTS ([2]; Hour 48): 2000 µg/mL
Substance: sodium pentaborate pentahydrate
IC50 determined by MTS (dose which killed 50% of renal cancer cells) ([1]; A498, Hour 72): 1400 µg/mL
IC50 ([1]; read-out: dose which killed 50% of renal cancer cells, A498, molar equivalent of the μg/ml value): 4.7 mM
IC50 determined by MTS (dose which killed 50% of renal cancer cells) ([2]; Hour 72): 1550 µg/mL
IC50 ([2]; read-out: dose which killed 50% of renal cancer cells, molar equivalent of the μg/ml value): 5.2 mM
programmed cell death (apoptosis) [3]: selectively leads cancer cells to programmed cell death
effect on cell proliferation [4]: slows down cell proliferation
